Like-named read-outs stand apart in the source and are kept apart here.
How the values were obtained:
Type in all cases: in vivo
[1] = system: crabgrass (Digitaria sanguinalis); test: Test B pre/postemergence; conditions: Digitaria sanguinalis; for pest or weed control at 125 g/ha: 125 g ai/ha; for pest or weed control at 500 g/ha: 500 g ai/ha
Outline: (§1)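 Compounds in non-phytotoxic solvent with surfactant applied preemergence to planted seeds or postemergence to plants 2 to 18 cm tall (1- to 4-leaf stage). Greenhouse 13 to 15 days, then visual rating against controls on a 0 to 100 scale (100 = complete control).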

[2] = system: Surinam grass (Brachiaria decumbens); test: Test B pre/postemergence; conditions: Urochloa decumbens; for pest or weed control at 125 g/ha: 125 g ai/ha; for pest or weed control at 500 g/ha: 500 g ai/ha
Outline: as §1

[3] = system: giant foxtail (Setaria faberii); test: Test B pre/postemergence; conditions: Setaria faberi; for pest or weed control at 125 g/ha: 125 g ai/ha; for pest or weed control at 500 g/ha: 500 g ai/ha
Outline: as §1

[4] = system: pigweed (Amaranthus retroflexus); test: Test B pre/postemergence; conditions: Amaranthus retroflexus; for pest or weed control at 125 g/ha: 125 g ai/ha; for pest or weed control at 500 g/ha: 500 g ai/ha
Outline: as §1

corn (Zea mays) = test: Test B pre/postemergence; conditions: Zea mays
Outline: as §1

[5] = system: velvetleaf (Abutilon theophrasti); test: Test B pre/postemergence; conditions: Abutilon theophrasti; for pest or weed control at 125 g/ha: 125 g ai/ha; for pest or weed control at 500 g/ha: 500 g ai/ha
Outline: as §1

[6] = system: morningglory (Ipomoea coccinea); test: Test B pre/postemergence; conditions: Ipomoea; for pest or weed control at 125 g/ha: 125 g ai/ha; for pest or weed control at 500 g/ha: 500 g ai/ha
Outline: as §1

[7] = system: cocklebur (Xanthium strumarium); test: Test B pre/postemergence; conditions: Xanthium strumarium; for pest or weed control at 125 g/ha: 125 g ai/ha; for pest or weed control at 500 g/ha: 500 g ai/ha
Outline: as §1

[8] = system: lambsquarters (Chenopodium album); test: Test B pre/postemergence; conditions: Chenopodium album; for pest or weed control at 125 g/ha: 125 g ai/ha; for pest or weed control at 500 g/ha: 500 g ai/ha
Outline: as §1

[9] = system: barnyardgrass (Echinochloa crus-galli); test: Test B pre/postemergence; conditions: Echinochloa crus-galli; for pest or weed control at 125 g/ha: 125 g ai/ha; for pest or weed control at 500 g/ha: 500 g ai/ha
Outline: as §1

[10] = system: wheat (Triticum aestivum); test: Test B pre/postemergence; conditions: Triticum aestivum; for plant injury at 125 g/ha: 125 g ai/ha; for plant injury at 500 g/ha: 500 g ai/ha
Outline: as §1

[11] = system: blackgrass (Alopecurus myosuroides); test: Test B postemergence; conditions: Alopecurus myosuroides, post-emergence
Outline: as §1

wild oat (Avena fatua) = test: Test B postemergence; conditions: Avena fatua, post-emergence
Outline: as §1

[12] = system: duck salad (Heteranthera limosa); test: Test B flooded paddy test; conditions: Heteranthera limosa, Flood, 1000 g ai/ha; scale 0 to 100; read-out: Plant response rating, Ducksalad
Outline: (§2)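 Plants were grown to the 2-leaf stage before treatment, then kept in a greenhouse for 13 to 15 days. Injury was rated visually against untreated controls on a 0 to 100 scale, where 0 is no effect and 100 is complete control.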

[13] = system: umbrella sedge (Cyperus difformis); test: Test B flooded paddy test; conditions: Cyperus difformis, Flood, 1000 g ai/ha; scale 0 to 100; read-out: Plant response rating, Sedge, Umbrella
Outline: as §2

rice (Oryza sativa) = test: Test B flooded paddy test; conditions: Oryza sativa, Flood, 1000 g ai/ha; scale 0 to 100; read-out: Plant response rating, Rice
Outline: as §2

[14] = system: barnyardgrass (Echinochloa crus-galli); test: Test B flooded paddy test; conditions: Echinochloa crus-galli, Flood, 1000 g ai/ha; scale 0 (no effect) to 100 (complete control); read-out: Plant response rating, Barnyardgrass
Outline: as §2

Question: `COC(=O)c1nc(C2CC2)nc(N)c1Cl` [Compound 9, methyl 6-amino-5-chloro-2-cyclopropyl-4-pyrimidinecarboxylate] was tested. Which pest or weed control at 125 g/ha ([1]; post-emergence, Postemergence, scale 0 to 100 (0 no effect, 100 complete control), read-out: Crabgrass plant response rating) did it give?
Answer: 90%

Question: And the pest or weed control at 500 g/ha ([1]; post-emergence, Postemergence, scale 0 to 100, read-out: Plant response rating, Crabgrass)?
Answer: 90%

Question: And the pest or weed control at 125 g/ha ([1]; pre-emergence, Preemergence, scale 0 to 100 (0 no effect, 100 complete control), read-out: Plant response rating, Crabgrass)?
Answer: 90%

Question: And the pest or weed control at 500 g/ha ([1]; pre-emergence, Preemergence, scale 0 to 100 (0 no effect, 100 complete control), read-out: Crabgrass plant response rating)?
Answer: 100%

Question: What about the pest or weed control at 125 g/ha ([2]; post-emergence, Postemergence, scale 0 to 100 (0 no effect, 100 complete control), read-out: Surinam Grass plant response rating) of the same compound?
Answer: 90%

Question: What about the pest or weed control at 500 g/ha ([2]; post-emergence, Postemergence, scale 0 to 100, read-out: Plant response rating, Surinam Grass) of the same compound?
Answer: 90%

Question: What about the pest or weed control at 125 g/ha ([2]; pre-emergence, Preemergence, scale 0 to 100 (0 no effect, 100 complete control), read-out: Plant response rating, Surinam Grass) of the same compound?
Answer: 70%

Question: And the pest or weed control at 500 g/ha ([2]; pre-emergence, Preemergence, scale 0 to 100 (0 no effect, 100 complete control), read-out: Surinam Grass plant response rating)?
Answer: 90%

Question: What about the pest or weed control at 125 g/ha ([3]; post-emergence, Postemergence, scale 0 to 100 (0 no effect, 100 complete control), read-out: Foxtail, Giant plant response rating) of the same compound?
Answer: 90%

Question: What about the pest or weed control at 500 g/ha ([3]; post-emergence, Postemergence, scale 0 to 100, read-out: Plant response rating, Foxtail, Giant) of the same compound?
Answer: 90%

Question: And the pest or weed control at 125 g/ha ([3]; pre-emergence, Preemergence, scale 0 to 100 (0 no effect, 100 complete control), read-out: Plant response rating, Foxtail, Giant)?
Answer: 70%

Question: What about the pest or weed control at 500 g/ha ([3]; pre-emergence, Preemergence, scale 0 to 100 (0 no effect, 100 complete control), read-out: Foxtail, Giant plant response rating) of the same compound?
Answer: 80%

Question: And the pest or weed control at 125 g/ha ([4]; post-emergence, Postemergence, scale 0 to 100 (0 no effect, 100 complete control), read-out: Pigweed plant response rating)?
Answer: 100%

Question: And the pest or weed control at 500 g/ha ([4]; post-emergence, Postemergence, scale 0 to 100, read-out: Plant response rating, Pigweed)?
Answer: 100%

Question: What about the pest or weed control at 125 g/ha ([4]; pre-emergence, Preemergence, scale 0 to 100 (0 no effect, 100 complete control), read-out: Plant response rating, Pigweed) of the same compound?
Answer: 90%

Question: And the pest or weed control at 500 g/ha ([4]; pre-emergence, Preemergence, scale 0 to 100 (0 no effect, 100 complete control), read-out: Pigweed plant response rating)?
Answer: 100%

Question: What about the plant injury at 125 g/ha (corn (Zea mays); post-emergence, Postemergence, 125 g ai/ha, scale 0 to 100 (0 no effect, 100 complete control), read-out: Corn plant response rating) of the same compound?
Answer: 70%

Question: What about the Corn plant response rating (crop injury, 0 = no effect, 100 = complete kill) at 500 g/ha (corn (Zea mays); post-emergence, Postemergence, 500 g ai/ha, scale 0 to 100) of the same compound?
Answer: 90%

Question: What about the Corn plant response rating (crop injury, 0 = no effect, 100 = complete kill) at 125 g/ha (corn (Zea mays); pre-emergence, Preemergence, 125 g ai/ha, scale 0 to 100 (0 no effect, 100 complete control)) of the same compound?
Answer: 50%

Question: What about the plant injury at 500 g/ha (corn (Zea mays); pre-emergence, Preemergence, 500 g ai/ha, scale 0 to 100 (0 no effect, 100 complete control), read-out: Corn plant response rating) of the same compound?
Answer: 80%

Question: And the pest or weed control at 125 g/ha ([5]; post-emergence, Postemergence, scale 0 to 100 (0 no effect, 100 complete control), read-out: Velvetleaf plant response rating)?
Answer: 100%

Question: And the pest or weed control at 500 g/ha ([5]; post-emergence, Postemergence, scale 0 to 100, read-out: Plant response rating, Velvetleaf)?
Answer: 100%

Question: And the pest or weed control at 125 g/ha ([5]; pre-emergence, Preemergence, scale 0 to 100 (0 no effect, 100 complete control), read-out: Plant response rating, Velvetleaf)?
Answer: 90%

Question: What about the pest or weed control at 500 g/ha ([5]; pre-emergence, Preemergence, scale 0 to 100 (0 no effect, 100 complete control), read-out: Velvetleaf plant response rating) of the same compound?
Answer: 100%

Question: What about the pest or weed control at 125 g/ha ([6]; post-emergence, Postemergence, scale 0 to 100 (0 no effect, 100 complete control), read-out: Morningglory plant response rating) of the same compound?
Answer: 100%

Question: And the pest or weed control at 500 g/ha ([6]; post-emergence, Postemergence, scale 0 to 100, read-out: Plant response rating, Morningglory)?
Answer: 100%

Question: And the pest or weed control at 125 g/ha ([6]; pre-emergence, Preemergence, scale 0 to 100 (0 no effect, 100 complete control), read-out: Plant response rating, Morningglory)?
Answer: 100%

Question: What about the pest or weed control at 500 g/ha ([6]; pre-emergence, Preemergence, scale 0 to 100 (0 no effect, 100 complete control), read-out: Morningglory plant response rating) of the same compound?
Answer: 100%

Question: What about the pest or weed control at 125 g/ha ([7]; post-emergence, Postemergence, scale 0 to 100 (0 no effect, 100 complete control), read-out: Cocklebur plant response rating) of the same compound?
Answer: 100%

Question: What about the pest or weed control at 500 g/ha ([7]; post-emergence, Postemergence, scale 0 to 100, read-out: Plant response rating, Cocklebur) of the same compound?
Answer: 100%

Question: What about the pest or weed control at 125 g/ha ([7]; pre-emergence, Preemergence, scale 0 to 100 (0 no effect, 100 complete control), read-out: Plant response rating, Cocklebur) of the same compound?
Answer: 90%

Question: What about the pest or weed control at 500 g/ha ([7]; pre-emergence, Preemergence, scale 0 to 100 (0 no effect, 100 complete control), read-out: Cocklebur plant response rating) of the same compound?
Answer: 100%

Question: What about the pest or weed control at 125 g/ha ([8]; post-emergence, Postemergence, scale 0 to 100 (0 no effect, 100 complete control), read-out: Lambsquarters plant response rating) of the same compound?
Answer: 90%

Question: What about the pest or weed control at 500 g/ha ([8]; post-emergence, Postemergence, scale 0 to 100, read-out: Plant response rating, Lambsquarters) of the same compound?
Answer: 100%

Question: And the pest or weed control at 125 g/ha ([8]; pre-emergence, Preemergence, scale 0 to 100 (0 no effect, 100 complete control), read-out: Plant response rating, Lambsquarters)?
Answer: 90%

Question: And the pest or weed control at 500 g/ha ([8]; pre-emergence, Preemergence, scale 0 to 100 (0 no effect, 100 complete control), read-out: Lambsquarters plant response rating)?
Answer: 100%

Question: What about the pest or weed control at 125 g/ha ([9]; post-emergence, Postemergence, scale 0 to 100 (0 no effect, 100 complete control), read-out: Barnyardgrass plant response rating) of the same compound?
Answer: 90%

Question: And the pest or weed control at 500 g/ha ([9]; post-emergence, Postemergence, scale 0 to 100, read-out: Plant response rating, Barnyardgrass)?
Answer: 90%

Question: And the pest or weed control at 125 g/ha ([9]; pre-emergence, Preemergence, scale 0 to 100 (0 no effect, 100 complete control), read-out: Plant response rating, Barnyardgrass)?
Answer: 50%

Question: And the pest or weed control at 500 g/ha ([9]; pre-emergence, Preemergence, scale 0 to 100 (0 no effect, 100 complete control), read-out: Barnyardgrass plant response rating)?
Answer: 90%

Question: What about the plant injury at 125 g/ha ([10]; post-emergence, Postemergence, scale 0 to 100 (0 no effect, 100 complete control), read-out: Wheat plant response rating) of the same compound?
Answer: 40%

Question: And the plant injury at 500 g/ha ([10]; post-emergence, Postemergence, scale 0 to 100, read-out: Plant response rating, Wheat)?
Answer: 70%

Question: And the plant injury at 125 g/ha ([10]; pre-emergence, Preemergence, scale 0 to 100 (0 no effect, 100 complete control), read-out: Plant response rating, Wheat)?
Answer: 40%

Question: What about the plant injury at 500 g/ha ([10]; pre-emergence, Preemergence, scale 0 to 100 (0 no effect, 100 complete control), read-out: Wheat plant response rating) of the same compound?
Answer: 80%

Question: And the pest or weed control at 125 g/ha ([11]; 125 g ai/ha, scale 0 to 100 (0 no effect, 100 complete control), read-out: Blackgrass plant response rating)?
Answer: 60%

Question: And the pest or weed control at 500 g/ha ([11]; 500 g ai/ha, scale 0 to 100, read-out: Plant response rating, Blackgrass)?
Answer: 80%

Question: And the pest or weed control at 125 g/ha (wild oat (Avena fatua); 125 g ai/ha, scale 0 to 100 (0 no effect, 100 complete control), read-out: Oat, Wild plant response rating)?
Answer: 20%

Question: And the pest or weed control at 500 g/ha (wild oat (Avena fatua); 500 g ai/ha, scale 0 to 100, read-out: Plant response rating, Oat, Wild)?
Answer: 70%

Question: What about the pest or weed control at 1000 g/ha [12] of the same compound?
Answer: 100%

Question: And the pest or weed control at 1000 g/ha [13]?
Answer: 90%

Question: And the plant injury at 1000 g/ha (rice (Oryza sativa))?
Answer: 80%

Question: What about the pest or weed control at 1000 g/ha [14] of the same compound?
Answer: 90%

From patent publication US8802597B2, “Herbicidal pyrimidines” (E I du Pont de Nemours and Company, priority 2003, dated 2014)
